Each structure is given as a SMILES string.

This experiment concerns the target T1, human DGAT2 (hDGAT2) (Homo sapiens, UniProt Q96PD7).
T1 construct: made in house; host or cells: Sf-9 insect cells (baculovirus infection); membrane fraction
T1 sequence (Q96PD7 1-388): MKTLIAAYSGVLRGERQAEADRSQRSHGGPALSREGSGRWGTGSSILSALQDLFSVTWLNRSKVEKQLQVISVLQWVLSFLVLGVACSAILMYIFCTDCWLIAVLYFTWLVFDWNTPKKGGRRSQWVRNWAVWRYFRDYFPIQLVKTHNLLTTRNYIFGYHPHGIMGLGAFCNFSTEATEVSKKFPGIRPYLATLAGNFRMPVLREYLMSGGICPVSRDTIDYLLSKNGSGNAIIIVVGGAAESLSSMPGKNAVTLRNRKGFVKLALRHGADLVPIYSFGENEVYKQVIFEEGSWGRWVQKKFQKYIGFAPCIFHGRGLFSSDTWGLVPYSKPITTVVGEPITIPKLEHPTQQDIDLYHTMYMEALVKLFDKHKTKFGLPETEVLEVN
In words: DGAT2 enzymatic activity assay (LC/MS/MS detection of 13C18-triolein, Sf-9 membrane prep). It is filed as biochemical. To be noted: hDGAT2 Sf-9 membrane, 25 μM diolein, 5 μM 13C oleoyl-CoA, rt. How it is done: Sf-9 insect cells were maintained in Grace's insect cell culture medium with 10% heated-inactivated fetal bovine serum, 1% Pluronic F-68 and 0.14 μg/ml Kanamycine sulfate at 27° C. in a shaker incubator. After infection with untagged baculovirus expressing human DGAT2 (hDGAT2) at multiplicity of infection (MOI) 3 for 48 hours, cells were harvested. Cell pellets were suspended in buffer containing 10 mM Tris-HCl pH 7.5, 1 mM EDTA, 250 mM sucrose and Complete Protease Inhibitor Cocktail (Sigma Aldrich), and sonicated on ice. Cell debris were removed by centrifugation at 2000×g for 15 minutes. Membrane fractions were isolated by ultracentrifugation (100,000×g), resuspended in the same buffer, and frozen (−80° C.) for later use. The protein concentration was determined with the Pierce™ BCA Protein Assay Kit (Thermo Fisher Scientific). Expression of protein levels was analyzed by immunoblotting with rabbit anti-DGAT2 antibody (Abcam, ab102831) and donkey anti-rabbit IgG H&L Alexa Fluor® 647 (Abcam, ab150075) followed by detection using Typhoon FLA9000 (GE Healthcare).
LC/MS/MS analyses were performed using Thermal Fisher's LX4-TSQ Vantage system. This system consists of an Agilent binary high-performance liquid chromatography (HPLC) pumps and a TSQ Vantage triple quadrupole MS/MS instrument. For each sample, 2 μL samples from the top organic layer of in-plate liquid-liquid extraction were injected onto a Thermo Betabasic C4 column (2.1 mm×20 mm, 5 μm particle size). The samples were then eluted using the following conditions; mobile phase: Isopropanol: acetonitrile/10 mM ammonium formate=50/35/15 (v/v/v), flow rate: 0.8 mL/min, temperature: 25° C. Data was acquired in positive mode using a heated electrospray ionization (HESI) interface. The operational parameters for the TSQ Vantage MS/MS instrument were a spray voltage of 3000 V, capillary temperature of 280° C., vaporizer temperature 400° C., sheath gas 45 arbitrary unit, Aux gas 10 arbitrary units, S-lens 165 and collision gas 1.0 mTorr. […] (SRM) chromatograms of ^13C18-triolein (Q1: 920.8>Q3:621.3) and internal standard ^13C21-triolein (Q1: 923.8>Q3:617.3) were collected for 33 sec. The peak area was integrated by Xcalibur Quan software. The ratio between the ^13C18triolein generated in the reaction and spiked in internal standard ^13C21-triolein was used to generate percentage inhibition and IC50 values. Compound percentage inhibition was calculated by the following formula: Inhibition %=1−[(compound response−low control)/(high control−low control)]×100%. Potent compounds were titrated and IC50 were calculated by 4 parameter sigmoidal curve fitting formula.
DGAT2 activity was determined by measuring the amount of enzymatic product ^13C18-triolein (^13C-1,2,3-Tri(cis-9-octadecenoyl)glycerol) using the membrane prep mentioned above. The assay was carried out in ABgene 384-well assay plates in a final volume of 25 μL at rt. The assay mixture contained the following: assay buffer (100 mM Tris.Cl, pH 7.0, 20 mM MgCl2, 5% ethanol), 25 μM of diolein, 5 μM of ^13C oleoyl-CoA and 8 ng/μL of DGAT2 membrane.
Consider `CC1(NC(=O)c2ccc3c(c2)c(C(F)F)nn3-c2cccc(OC(F)F)c2)CS(=O)(=O)C1` [Example 32, 1-(3-(difluoromethoxy)phenyl)-3-(difluoromethyl)-N-(3-methyl-1,1-dioxidothietan-3-yl)-1H-indazole-5-carboxamide], for which the midpoint of inhibition, the IC50, lay at 24 nM.

Regarding `CC1(NC(=O)c2cnc3c(c2)c(C(C)(C)O)nn3-c2cc(OC(F)F)ccc2F)CS(=O)(=O)C1` [Example 41, l-(5-(difluoromethoxy)-2-fluorophenyl)-3-(2-hydroxypropan-2-yl)-N-(3-methyl-1,1-dioxidothietan-3-yl)-1H-pyrazolo[3,4-b]pyridine-5-carboxamide], the IC50 (usually the concentration at which inhibition is half-maximal) was determined as 25 nM.

With `CC(O)c1nn(-c2cccc(OC(F)F)c2)c2ncc(C(=O)NC3(C)CS(=O)(=O)C3)cc12` (single isomer, unassigned) [Example 38b, l-(3-(difluoromethoxy)phenyl)-3-(l-hydroxyethyl)-N-(3-methyl-1,1-dioxidothietan-3-yl)-1H-pyrazolo[3,4-b]pyridine-5-carboxamide], the 50% inhibitory concentration (IC50) is 54 nM.

In the case of `CC1(NC(=O)c2ccc3c(c2)c(C2(O)CCOCC2)nn3-c2cccc(OC(F)F)c2)CS(=O)(=O)C1` [Example 22], half-maximal inhibition (IC50) was put at 51 nM.

Turning to `CC1(NC(=O)c2cnc3c(c2)c(C2CCOCC2)nn3-c2cccc(OC(F)F)c2)CS(=O)(=O)C1` [Example 21], 7.1 nM corresponded to half-maximal inhibition (IC50).

On to `Cc1cc(C(=O)NC2(C)CS(=O)(=O)C2)cc2c(C(C)(C)O)nn(-c3cccc(OC(F)F)c3)c12` [Example 36, 1-(3-(difluoromethoxy)phenyl)-3-(2-hydroxypropan-2-yl)-7-methyl-N-(3-methyl-1,1-dioxidothietan-3-yl)-1H-indazole-5-carboxamide], for which the IC50 was found to be 59 nM.

For `CC1(NC(=O)c2cnc3c(c2)c(C2(O)CCC2)nn3-c2cccc(OC(F)F)c2)CS(=O)(=O)C1` [Example 39, l-(3-(difluoromethoxy)phenyl)-3-(l-hydroxycyclobutyl)-N-(3-methyl-1,1-dioxidothietan-3-yl)-lH-pyrazolo[3,4-b]pyridine-5-carboxamide], the midpoint of inhibition, the IC50, lay at 15 nM.

`C[C@]1(NC(=O)c2cnc3c(c2)c(-c2ccc(F)cc2)nn3-c2cccc(OC(F)F)c2)CCS(=O)(=O)C1` [Example 4, (S)-1-(3-(difluoromethoxy)phenyl)-3-(4-fluorophenyl)-N-(3-methyl-l,1-dioxo-thiolan-3-yl)pyrazolo[3,4-b]pyridine-5-carboxamide] showed a half-maximal inhibitory concentration (IC50) of 3.2 nM.

In the case of `CC1(NC(=O)c2ccc3c(c2)c(O)nn3-c2cccc(OC(F)F)c2)CS(=O)(=O)C1` [Example 56], the IC50 is > 10000 nM.

On to `CC(C)(O)Cc1nn(-c2cccc(OC(F)F)c2)c2ncc(C(=O)NC3(C)CS(=O)(=O)C3)cc12` [Example 23], for which 5.8 nM corresponded to half-maximal inhibition (IC50).

Compound `CC1(NC(=O)c2ccc3c(c2)c(C(O)C(F)(F)F)nn3-c2cccc(OC(F)F)c2)CS(=O)(=O)C1` (single isomer, unassigned) [Example 30b, 1-[3-(difluoromethoxy)phenyl]-N-(3-methyl-1,1-dioxo-thietan-3-yl)-3-(2,2,2-trifluoro-1-hydroxy-ethyl)indazole-5-carboxamide] showed an IC50 of 113 nM.

Take `CC1(NC(=O)c2ccc3c(c2)c(C(O)C2CC2)nn3-c2cccc(OC(F)F)c2)CS(=O)(=O)C1` (single isomer, unassigned) [Example 29b, 3-[cyclopropyl(hydroxy)methyl] - 1-[3-(difluoromethoxy)phenyl]-N-(3-methyl-1,1-dioxo-thietan-3-yl)indazole-5-carboxamide]: 205 nM corresponded to half-maximal inhibition (IC50).

In turn, `CC(C)c1nn(-c2cncc(OC(F)F)c2)c2ncc(C(=O)NC3(C)CS(=O)(=O)C3)cc12` [Example 17] had an IC50 of 25 nM.

Compound `Cn1nccc1-n1nc(-c2ccc(F)cc2)c2cc(C(=O)NC3(C)CS(=O)(=O)C3)ccc21` [Example 3, 3-(4-fluorophenyl)-N-(3-methyl-1,1-dioxo-thietan-3-yl)-1-(2-methylpyrazol-3-yl)indazole-5-carboxamide] gave an IC50 of 389 nM.

On to `C[C@]1(NC(=O)c2ccc3c(c2)c(Oc2ccc(F)cc2)nn3-c2cccc(OC(F)F)c2)CCS(=O)(=O)C1` [Example 54, (S)-1-(3-(difluoromethoxy)phenyl)-3-(4-fluorophenoxy)-N-(3-methyl-1,1-dioxidotetrahydrothiophen-3-yl)-1H-indazole-5-carboxamide], for which the IC50 is 0.3 nM.

In the case of `CCC(O)c1nn(-c2cccc(OC(F)F)c2)c2ccc(C(=O)NC3(C)CS(=O)(=O)C3)cc12` (single isomer, unassigned) [Example 28a, 1-(3-(difluoromethoxy)phenyl)-3-(1-hydroxypropyl)-N-(3-methyl-1,1-dioxidothietan-3-yl)-1H-indazole-5-carboxamide], half-maximal inhibition (IC50) was put at 24 nM.

`CC1(NC(=O)c2ccc3c(c2)c(C(O)C(F)(F)F)nn3-c2cccc(OC(F)F)c2)CS(=O)(=O)C1` (racemic) [Example 30, 1-(3-(difluoromethoxy)phenyl)-N-(3-methyl-1,1-dioxidothietan-3-yl)-3-(2,2,2-trifluoro-1-hydroxyethyl)-1H-indazole-5-carboxamide] had an IC50 of 47 nM.

For the compound `CC(C)c1nn(-c2cncc(OC(F)F)c2)c2ccc(C(=O)NC3(C)CS(=O)(=O)C3)cc12` [Example 18], the IC50 turned out to be 56 nM.

The compound `CC(C)c1nn(-c2cccc(OC(F)F)c2)c2ncc(C(=O)N[C@@]3(C)CCS(=O)(=O)C3)cc12` [Example 11, (S)-1-(3-(difluoromethoxy)phenyl)-3-isopropyl-N-(3-methyl-1,1-dioxidotetrahydrothlophen-3-yl)-1H-pyrazolo[3,4-b]pyridine-5-carboxamide] showed a half-maximal inhibitory concentration (IC50) of 16 nM.

In turn, `CC(C)c1nn(-c2cc(OCC(F)F)ncc2F)c2ncc(C(=O)NC3(C)CS(=O)(=O)C3)cc12` [Example 26, 1-(2-(2,2-difluoroethoxy)-5-fluoropyridin-4-yl)-3-isopropyl-N-(3-methyl-1,1-dioxidothietan-3-yl)-1H-pyrazolo[3,4-b]pyridine-5-carboxamide] displayed a half-inhibitory concentration (IC50) of 2.2 nM.

With `CC(C)(CN1CCOCC1)NC(=O)c1ccc2c(c1)c(-c1ccccc1Cl)cn2-c1ccc(F)cc1` [Example 9, 3-(2-chlorophenyl)-1-(4-fluorophenyl)-N-(2-methyl-l-morpholinopropan-2-yl)-1H-indole-5-carboxamide], the midpoint of inhibition, the IC50, lay at 12300 nM.

`CCC(O)c1nn(-c2cccc(OC(F)F)c2)c2ccc(C(=O)NC3(C)CS(=O)(=O)C3)cc12` (racemic) [Example 28, 1-(3-(difluoromethoxy)phenyl)-3-(1-hydroxypropyl)-N-(3-methyl-1,1-dioxidothietan-3-yl)-1H-indazole-5-carboxamide] gave a half-maximal inhibitory concentration (IC50) of 78 nM.

`CC(O)c1nn(-c2cccc(OC(F)F)c2)c2ncc(C(=O)NC3(C)CS(=O)(=O)C3)cc12` (single isomer, unassigned) [Example 38a, 1-(3-(difluoromethoxy)phenyl)-3-(l-hydroxyethyl)-N-(3-methyl-1,1-dioxidothietan-3-yl)-1H-pyrazolo[3,4-b]pyridine-5-carboxamide] yielded a 50% inhibitory concentration (IC50) of 38 nM.

As for `CC1(NC(=O)c2cnc3c(c2)c(C(C)(C)O)nn3-c2cc(OC(F)(F)F)ccc2F)CS(=O)(=O)C1` [Example 40, l-(2-fluoro-5-(trifluoromethoxy)phenyl)-3-(2-hydroxypropan-2-yl)-N-(3-methyl-1,1-dioxidothietan-3-yl)-1H-pyrazolo[3,4-b]pyridine-5-carboxamide], the IC50 was 14 nM.

The record behind these values is patent publication US20230174521A1, “NOVEL DIACYLGLYCERIDE O-ACYLTRANSFERASE 2 INHIBITORS” (Merck Sharp & Dohme LLC, priority 2020, published 2023).
